The text below walks through data of US6831106B1, “Vitamin D analogues” (Galderma Research & Development, S.N.C., priority 1999, dated 2004).

The structures appear in SMILES notation.

One assay relates to seborrhoeic scalp. The experiment in a line: antiseboric lotion applied to a seborrhoeic scalp. The conditions noted are these: lotion with 0.030 g compound per 100 g, applied twice a day, within a period of 2 to 6 weeks. Type of assay: in vivo.
For the compound `CCCC(O)(CCC)c1ccc(-c2cccc(OCc3ccc(CO)c(CO)c3)c2C)c(C)c1` [Example 12, {2-Hydroxymethyl-4-[4′-(1-hydroxy-1-propylbutyl)-2,2′-dimethylbiphenyl-3-yloxymethyl]phenyl}methanol], the “improvement of seborrhoeic scalp” value was “significant improvement”.

In a further assay the target is T1, human VDR receptor (Homo sapiens, UniProt P11473).
T1 construct: expressed in transfected cells; host or cells: HeLa
T1 sequence (P11473 1-427): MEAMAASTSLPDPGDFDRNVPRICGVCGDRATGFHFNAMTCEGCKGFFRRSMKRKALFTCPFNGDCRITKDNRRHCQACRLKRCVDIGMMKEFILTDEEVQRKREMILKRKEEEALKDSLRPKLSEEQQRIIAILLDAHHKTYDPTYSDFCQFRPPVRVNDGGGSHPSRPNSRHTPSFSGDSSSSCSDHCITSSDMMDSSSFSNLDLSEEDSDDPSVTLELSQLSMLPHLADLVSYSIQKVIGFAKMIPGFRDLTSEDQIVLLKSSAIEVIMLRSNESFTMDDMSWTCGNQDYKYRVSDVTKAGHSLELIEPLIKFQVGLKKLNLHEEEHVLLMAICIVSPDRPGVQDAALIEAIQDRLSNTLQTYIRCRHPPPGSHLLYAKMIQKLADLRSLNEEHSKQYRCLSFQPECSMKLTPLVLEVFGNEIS
In words: VDR agonist activity, co-transfection of human VDR expression vector and p240Hase-CAT reporter in HeLa cells. Type of assay: cell-based. The conditions noted are these: HeLa cell line, CAT reporter under rat 24-hydroxylase promoter, 18 hours treatment, ELISA; read-out: AC 50 (dose required to achieve 50% of the maximum activity of the product). The procedure: By way of example, the VDR agonist activity can be tested on the HeLa cell line by co-transfection with an expression vector for the human VDR receptor and the reporter plasmid p240Hase-CAT which contains the region −1399 to +76 of rat 24-hydroxylase promoter, cloned upstream of the frame encoding the chloramphenicol-acetyl-transferase (CAT)′gene. 18 hours after co-transfection, the test product is added to the medium. 18 hours after treatment, assay of the CAT activity in the cell lysates is carried out by an ELISA test. The results are expressed as percentages of the effect normally observed with 10^−7M calcitriol.
The agonist activity can also be characterized in this co-transfection system, by determining the dose required to reach 50% of the maximum activity of the product (AC50).
The VDR agonist activity was tested on the HeLa cell line, by co-transfection of an expression vector of the human VDR receptor and of the reporter plasmid p240Hase-CAT which contains the region −1399 to +76 of the rat 24-hydroxylase promoter, cloned upstream of the coding frame of the chloramphenicol-acetyl-transferase (CAT) gene. 18 hours after co-transfection, the test product is added to the medium. After treatment for 18 hours, the CAT activity of the cell lysates is assayed by an ELISA test. The results are expressed as a percentage of the effect normally observed with 10^−7 M of calcitriol.
The agonist activity was characterized in this co-transfection system by determining the dose required to achieve 50% of the maximum activity of the product (AC50).
(ELISA stands for enzyme-linked immunosorbent assay.)
Turning to `CCC(O)(CC)c1ccc(-c2cccc(OCc3ccc(CO)c(CO)c3)c2)c(C)c1` [Example 3, {5-4′-[(1-Ethyl-1-hydroxypropyl)-2′-methylbiphenyl-3-yloxymethyl]-2-hydroxymethylphenyl}methanol], the AC50 came to 470 nM. For `CCC(O)(CC)c1ccc(-c2cccc(SCc3ccc(CO)c(CO)c3)c2)c(C)c1` [Example 10, {4-[4′-(1-Ethyl-1-hydroxypropyl)-2′-methylbiphenyl-3-ylsulphanylmethyl]-2-hydroxymethylphenyl}methanol], the AC50 was determined as 2040 nM.

For the compound `CCC(O)(CC)c1ccc(-c2cccc(OCc3ccc(CO)c(CO)c3)c2C)c(C)c1` [Example 11, {4-[4′-(1-Ethyl-1-hydroxypropl)-2,2′-dimethylbiphenyl-3-yloxymethyl]-2-hydroxymethylphenyl}methanol], the AC50 was determined as 291 nM.

On to `CCC(O)(CC)c1ccc(-c2cc(OCc3ccc(CO)c(CO)c3)ccc2C)c(C)c1` [Example 16, {4-[4′-(1-Ethyl-1-hydroxypropyl)-6,2′-dimethylbiphenyl-3-yloxymethyl]-2-hydroxymethylphenyl}methanol], for which the AC50 stood at 46 nM. Same read-out and setting: next, `CCC(O)(CC)c1cc(C)c(-c2cc(OCc3ccc(CO)c(CO)c3)ccc2C)c(C)c1` [Example 17, {4-[4′-(1-Ethyl-1-hydroxypropyl)-6,2′,6′-trimethylbiphenyl-3-yloxymethyl]-2-hydroxymethylphenyl}methanol]: 194 nM; `CCC(O)(CC)c1ccc(-c2cc(OCc3ccc(CO)c(CO)c3)ccc2C)cc1` [Example 18, {4-[4′-(1-Ethyl-1-hydroxypropyl)-6-methylbiphenyl-3-yloxymethyl]-2-hydroxymethylphenyl}methanol]: 133 nM; `CCC(O)(CC)c1ccc(-c2cccc(COc3ccc(CO)c(CO)c3)c2)c(C)c1` [Example 22, {4-[4′-(1-Ethyl-1-hydroxypropyl)-2′-methylbiphenyl-3-ylmethoxy]-2-hydroxymethylphenyl}methanol]: 451 nM.
